Earlier results as cited in US20180311177A1, “Therapeutic Nanoparticles Comprising A Therapeutic Agent and Methods of Making and Using Same” (Pfizer Inc., priority 2015, published 2018).

Tests used:
[1] = not given; remark: listed apart in the source

| SMILES | log P | pKa [1] |
| --- | --- | --- |
| c1ccc(CNCCNCc2ccccc2)cc1 [N,N′-dibenzylethylenediamine] | 2.89 |  |
| c1ccc(CCNCc2ccccc2)cc1 [N-(phenylmethyl)benzeneethanamine] | 3.54 | 9.88 |
| CCCCCCCCCCCCN [dodecylamine] | 4.25 | 10.21 |
